Test results published in patent US20140235545A1, “The use of HCV immunogenic peptide or a derivative thereof in the prevention or treatment of arthritis” (priority 2011, published 2014).
“Also recorded” adds a separate entry of the source. No end group written: not given here.

Test system: combined collagen-adjuvant induced arthritis (calf type II collagen in combination with Freund's complete adjuvant)
Test: Protective effect of peptide A on combined collagen-adjuvant induced arthritis in rats
Type: in vivo, SD rats
Details: for ankle joint swelling value: X±SD; for ankle joint swelling value / Lesion scoring ( X ± SD), joint lesion severity: n=10; for inhibition rate of ankle joint swelling: vs model group; for Lesion scoring ( X ± SD), joint lesion severity / state of joint synovial tissue (HE sections): 32nd day; for Lesion scoring ( X ± SD), joint lesion severity: left rear ankle joint histopathology, lower score = milder
From the text: SPF-level SD rats, each weighting 180 g˜220 g, with male and female each in half, provided by Experimental Animal Center of Chinese Academy of Military Medical.
Peptide with the following sequence is used: GQTYTSG (hereinafter referred to as peptide A), which is synthesized by solid phase peptide synthesis method using 413A automatic peptide synthesizer (available from Perkin Elmer Corporation), the detailed synthetic steps is described in Example 1 of PCT/CN2006/001176. The peptide was to be dissolved in physiological saline when used.
SD rats, with male and female each in half, were randomly divided into five groups with 10 rats in each group, respectively are model group (employing physiological saline, calf type II collagen and Freund's complete adjuvant); control group (employing the same volume of physiological saline as the model group); peptide A high, medium and low dose groups (employing calf type II collagen, Freund's complete adjuvant and peptide A, wherein each group is given different doses of peptide A, respectively are 174 μg/kg·d, 87 μg/kg·d and 43.5 μg/kg·d, peptide A is dissolved in physiological saline to form peptide A solution with desired concentration). Peptide A solution in each dose was administered by subcutaneous injection, 0.1 ml of peptide A solution per 100 g body weight of rats. The control group employed the same amount of physiological saline as that of the peptide A solution (0.1 ml of physiological saline per 100 g body weight of rats).
10 mg of calf type II collagen was dissolved into 5 ml 0.1 mol/L of acetic acid solution, and then the resulting solution was placed in a refrigerator at 4° C. overnight, the next day, the solution was mixed with Freund's complete adjuvant in a volume ratio of 1:1, the resulting mixture is sucked and discharged repeatedly by a syringe, until the mixture was emulsified into an emulsion completely. Each group rats were administered according to the following manner. These rats were normally fed every day during the administration.
On the 1st day, except the control group, for rats of other groups (the model group and the peptide A high, medium and low dose groups), 0.5 ml of the emulsion (prepared by calf type II collagen and Freund's complete adjuvant as above) was subcutaneously injected into the base of the tail of every rat, and the injection site is pressed slightly for 30 s so that the emulsion was completely absorbed. On the 8th day, emulsion injection is conducted again in the same way, 0.5 ml for every rat.
From the 2nd day (including this day), the rats of peptide A high, medium and low dose groups each were administered with corresponding dose of peptide A. Then, they were subcutaneously injected with corresponding dose of peptide A for one time every other day, a total of 15 times; at the same time, the rats of the control group and the model group were subcutaneously injected the same amount of physiological saline as that of peptide A for the high, medium and low dose groups every other day, a total of 15 times.
Measurement for the experimental results was conducted as follows. Firstly, before administration to rats of each group, left rear ankle circumference of each rat was measured by a flexible rule as a base value, and then circumference of left rear ankle with inflammation of each rat was measured at the 4th, 8th, 12th, 16th, 20th, 24th, 28th, and 32nd day, respectively. Swelling value obtained by circumference after inflammation minus circumference before inflammation was used to observe changes of primary and secondary inflammation of combined collagen-adjuvant induced rats.
Secondly, at the 32nd day, rats of each group were killed, and their left rear foot ankle joints ware quickly taken out, fixed in 10% formalin and then embedded in paraffin after decalcification, sectioned and stained with HE. […]

[1] = high dose 174 μg/kg·d s.c., the 4th day
[2] = high dose 174 μg/kg·d s.c., the 8th day
[3] = high dose 174 μg/kg·d s.c., the 12th day
[4] = high dose 174 μg/kg·d s.c., the 16th day
[5] = high dose 174 μg/kg·d s.c., the 20th day
[6] = high dose 174 μg/kg·d s.c., the 24th day
[7] = high dose 174 μg/kg·d s.c., the 28th day
[8] = high dose 174 μg/kg·d s.c., the 32nd day
[9] = low dose 43.5 μg/kg·d s.c., the 4th day
[10] = low dose 43.5 μg/kg·d s.c., the 8th day
[11] = low dose 43.5 μg/kg·d s.c., the 12th day
[12] = low dose 43.5 μg/kg·d s.c., the 16th day
[13] = low dose 43.5 μg/kg·d s.c., the 20th day
[14] = low dose 43.5 μg/kg·d s.c., the 24th day
[15] = low dose 43.5 μg/kg·d s.c., the 28th day
[16] = low dose 43.5 μg/kg·d s.c., the 32nd day
[17] = medium dose 87 μg/kg·d s.c., the 4th day
[18] = medium dose 87 μg/kg·d s.c., the 8th day
[19] = medium dose 87 μg/kg·d s.c., the 12th day
[20] = medium dose 87 μg/kg·d s.c., the 16th day
[21] = medium dose 87 μg/kg·d s.c., the 20th day
[22] = medium dose 87 μg/kg·d s.c., the 24th day
[23] = medium dose 87 μg/kg·d s.c., the 28th day
[24] = medium dose 87 μg/kg·d s.c., the 32nd day

GQTYTSG [Peptide A]
arthritis lesion (histopathology) after administration (all dose groups, effect in descending order high, medium, low): reduced in different degrees
ankle joint swelling value [1]: 7.3 ± 1.8 mm
inhibition rate of ankle joint swelling [1]: (20.6%)
ankle joint swelling value [2]: 8.2 ± 1.5 mm
inhibition rate of ankle joint swelling [2]: (34.4%)
ankle joint swelling value [3]: 9.5 ± 2.1 mm
inhibition rate of ankle joint swelling [3]: (30.1%)
ankle joint swelling value [4]: 9.8 ± 1.7 mm
inhibition rate of ankle joint swelling [4]: (35.5%)
ankle joint swelling value [5]: 10.2 ± 1.9 mm
inhibition rate of ankle joint swelling [5]: (41.4%)
ankle joint swelling value [6]: 10.5 ± 1.9 mm
inhibition rate of ankle joint swelling [6]: (44.1%)
ankle joint swelling value [7]: 11.4 ± 1.6 mm
inhibition rate of ankle joint swelling [7]: (38.7%)
ankle joint swelling value [8]: 12.0 ± 1.6 mm
inhibition rate of ankle joint swelling [8]: (30.6%)
Lesion scoring ( X ± SD), joint lesion severity (high dose group (174 μg/kg·d s.c.)): 3.73 ± 1.57
inhibition rate to the joint swelling (high dose group (174 μg/kg·d)): ~45%
state of joint synovial tissue (HE sections) (high dose group, FIGS. 5a and 5b): mild congestion of local synovial tissue of the rats, having no significant surface proliferation
joint swelling compared with rats of the model group (high, medium and low dose groups, observation): significantly reduced joint swelling
skin ulcer symptom (high, medium and low dose groups, part of model rats had skin ulcers on the 24th day): did not have skin ulcer symptom
ankle joint swelling value [9]: 8.8 ± 1.6 mm
inhibition rate of ankle joint swelling [9]: (4.3%)
ankle joint swelling value [10]: 10.2 ± 1.7 mm
inhibition rate of ankle joint swelling [10]: (18.4%)
ankle joint swelling value [11]: 11.2 ± 1.8 mm
inhibition rate of ankle joint swelling [11]: (17.6%)
ankle joint swelling value [12]: 12.3 ± 1.8 mm
inhibition rate of ankle joint swelling [12]: (19.1%)
ankle joint swelling value [13]: 13.4 ± 1.7 mm
inhibition rate of ankle joint swelling [13]: (23.0%)
ankle joint swelling value [14]: 14.6 ± 1.8 mm
inhibition rate of ankle joint swelling [14]: (22.3%)
ankle joint swelling value [15]: 14.8 ± 2.2 mm
inhibition rate of ankle joint swelling [15]: (20.4%)
ankle joint swelling value [16]: 14.5 ± 1.8 mm
inhibition rate of ankle joint swelling [16]: (16.2%)
Lesion scoring ( X ± SD), joint lesion severity (low dose group (43.5 μg/kg·d s.c.)): 4.36 ± 1.15
state of joint synovial tissue (HE sections) (low dose group, FIGS. 3a and 3b): mild congestion and significant proliferation and surface projection of the synovial tissue, as well as mild degeneration of covering synovial cells
ankle joint swelling value [17]: 8.2 ± 1.5 mm
inhibition rate of ankle joint swelling [17]: (10.9%)
ankle joint swelling value [18]: 9.3 ± 2.2 mm
inhibition rate of ankle joint swelling [18]: (25.6%)
ankle joint swelling value [19]: 9.9 ± 1.8 mm
inhibition rate of ankle joint swelling [19]: (27.2%)
ankle joint swelling value [20]: 11.4 ± 1.6 mm
inhibition rate of ankle joint swelling [20]: (25.0%)
ankle joint swelling value [21]: 12.2 ± 1.7 mm
inhibition rate of ankle joint swelling [21]: (29.9%)
ankle joint swelling value [22]: 12.6 ± 2.1 mm
inhibition rate of ankle joint swelling [22]: (33.0%)
ankle joint swelling value [23]: 13.7 ± 1.8 mm
inhibition rate of ankle joint swelling [23]: (26.3%)
ankle joint swelling value [24]: 13.9 ± 1.7 mm
inhibition rate of ankle joint swelling [24]: (19.6%)
Lesion scoring ( X ± SD), joint lesion severity (medium dose group (87 μg/kg·d s.c.)): 4.12 ± 1.28
state of joint synovial tissue (HE sections) (medium dose group, FIGS. 4a and 4b): mild congestion of local synovial tissue and infiltration of few inflammatory cells; also recorded: mild congestion, uneven surface and mild proliferation of the synovial tissue
